Source: patent US20220242846A1, “ISOINDOLINONE COMPOUNDS” (Monte Rosa Therapeutics AG, priority 2019, published 2022)

What follows are compounds tested against T1, Full length wild-type cereblon CRBN (Homo sapiens, UniProt Q96SW2) (assay: Fluorescence polarization (FP) assay indicating cereblon binding). Details: CRBN 80.0 nM, fluorescent probe 5 nM, FP measured after 12 hours; read-out: rFP IC50.
T1 construct: Full length wild-type cereblon CRBN (80.0 nM, 10 μL) was incubated in assay buffer
Summary of the method: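 Full-length wild-type human CRBN (80.0 nM) preincubated 30 min at room temperature with compound (12-point curve, 300-0.937 or 3000-9.3 nM) in HEPES pH 8.0, NaCl, TCEP, Tween 20. Thalidomide-based Cy5-type probe then added at 5 nM final; FP read after 12 h (ex 590, em 675 nm), normalized to DMSO, IC50 derived.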

T1 sequence (Q96SW2 whole entry): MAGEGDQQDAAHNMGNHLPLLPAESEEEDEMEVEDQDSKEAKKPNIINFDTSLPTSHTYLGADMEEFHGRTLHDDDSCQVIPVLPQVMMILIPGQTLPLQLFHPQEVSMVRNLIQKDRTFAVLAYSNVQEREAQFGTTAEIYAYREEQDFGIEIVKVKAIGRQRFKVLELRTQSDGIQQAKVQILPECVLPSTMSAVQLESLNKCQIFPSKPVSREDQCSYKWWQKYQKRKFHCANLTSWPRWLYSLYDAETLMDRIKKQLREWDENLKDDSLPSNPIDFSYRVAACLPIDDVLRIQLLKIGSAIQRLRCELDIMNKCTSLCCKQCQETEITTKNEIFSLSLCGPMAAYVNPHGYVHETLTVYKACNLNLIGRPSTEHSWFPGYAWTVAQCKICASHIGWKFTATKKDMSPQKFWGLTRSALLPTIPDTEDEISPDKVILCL

Row | Structure (SMILES) | IC50 [nM]
1 | O=C1CCC(N2Cc3ccc(CNC(=O)Nc4ccc(C(F)(F)F)cc4)cc3C2=O)C(=O)N1 (stereo not drawn) [Compound 41] | 590
2 | Cc1cccc(NC(=O)NCc2ccc3c(c2)C(=O)N(C2CCC(=O)NC2=O)C3)c1 (stereo not drawn) [Compound 43] | 757
3 | O=C1CCC(N2Cc3ccc(CNC(=O)Nc4cc(Cl)ccc4Cl)cc3C2=O)C(=O)N1 (stereo not drawn) [Compound 35] | 602
4 | N#Cc1cccc(NC(=O)NCc2ccc3c(c2)C(=O)N(C2CCC(=O)NC2=O)C3)c1 (stereo not drawn) [Compound 73] | 211
5 | O=C1CCC(N2Cc3ccc(CNC(=O)Nc4cccc(Cl)c4)cc3C2=O)C(=O)N1 (stereo not drawn) [Compound 3] | 400
6 | O=C1CCC(N2Cc3ccc(CNC(=O)NCc4ccc(C(F)(F)F)cc4)cc3C2=O)C(=O)N1 (stereo not drawn) [Compound 65] | 637
7 | O=C1CCC(N2Cc3ccc(CNC(=O)NCCc4ccc(Cl)cc4)cc3C2=O)C(=O)N1 (stereo not drawn) [Compound 64] | 400
8 | Cc1cc(NC(=O)NCc2ccc3c(c2)C(=O)N(C2CCC(=O)NC2=O)C3)ccc1Cl (stereo not drawn) [Compound 61] | 381

The compounds below were run on Human mammary epithelial cells (HMEC) engineered to express EGFP alone (non myc) (assay: 3D spheroid assay, non myc-HMEC (CellTiterGlo3D viability)). Details: 120 h, 3D spheroids, 5 days with compound, read-out: Code: EC50 value in the non myc-HMEC assay.
Assay type: cell-based
Description: (§1) 3D Spheroid Experiments—HMEC
(§2) Human mammary epithelial cells (HMEC) were engineered to express either c-myc tagged with EGFP or EGFP alone (non myc) (analogous but distinct from Kessler J D et al, Science. 2012 Jan. 20; 335(6066):348-53. doi: 10.1126/science.1212728; Hsu T Y et al, Nature. 2015 Sep. 17; 525(7569):384-8. doi: 10.1038/nature14985). The engineered cells were seeded at 1000 (myc) or 4000 (non myc) cells/well in a 384 ultra-low attachment plate in a total volume of 40 µL, HMEC cell culture media (DMEM/F12+10% HI-FBS+15 mM HEPES+0.5 ug/ml Hydrocortisone+10 ug/ml Insulin+20 ng/ml EGF). Plates were spun at 1200 rpm for 5 minutes at room temperature to ensure that cells have gathered in the middle of the well and incubated at 37° C. for 48 hrs before firing with compounds. On Day 2 (48 h post seeding) cells were imaged (brightfield and EGFP fluorescence) using the Celigo imaging cytometer prior to firing compounds. For primary screens, compounds were added at three concentrations (1.25, 10 and 30 uM) in a volume of 120 nL using the ECHO acoustic dispenser and spun at 2000 rpm for 2 minutes at room temperature before incubating at 37° C. for 5 days. […] On Day 7, prior to measuring cell viability using CellTiterGlo3D, cells were imaged (brightfield and EGFP fluorescence) on the Celigo imaging cytometer. The CellTiterGlo3D reagent is added at 30uL/well and incubated at room temperature for 30mins After 30mins of incubation, luminescence readings were recorded using the Perkin Elmer EnVision reader.

Row | Structure (SMILES) | EC50 [µM]
9 | O=C1CCC(N2Cc3ccc(CNC(=O)Nc4ccc(C(F)(F)F)cc4)cc3C2=O)C(=O)N1 (stereo not drawn) [Compound 41] | > 10
10 | Cc1cccc(NC(=O)NCc2ccc3c(c2)C(=O)N(C2CCC(=O)NC2=O)C3)c1 (stereo not drawn) [Compound 43] | > 10
11 | O=C1CCC(N2Cc3ccc(CNC(=O)Nc4cc(Cl)ccc4Cl)cc3C2=O)C(=O)N1 (stereo not drawn) [Compound 35] | > 10
12 | N#Cc1cccc(NC(=O)NCc2ccc3c(c2)C(=O)N(C2CCC(=O)NC2=O)C3)c1 (stereo not drawn) [Compound 73] | > 10
13 | O=C1CCC(N2Cc3ccc(CNC(=O)Nc4cccc(Cl)c4)cc3C2=O)C(=O)N1 (stereo not drawn) [Compound 3] | > 10
14 | O=C1CCC(N2Cc3ccc(CNC(=O)NCc4ccc(C(F)(F)F)cc4)cc3C2=O)C(=O)N1 (stereo not drawn) [Compound 65] | > 10
15 | O=C1CCC(N2Cc3ccc(CNC(=O)NCCc4ccc(Cl)cc4)cc3C2=O)C(=O)N1 (stereo not drawn) [Compound 64] | > 10
16 | Cc1cc(NC(=O)NCc2ccc3c(c2)C(=O)N(C2CCC(=O)NC2=O)C3)ccc1Cl (stereo not drawn) [Compound 61] | > 10

Each compound was assayed against GSPT1 (Homo sapiens, UniProt P15170+Q96SW2) (assay: Immunofluorescence assay for GSPT1 degradation in CAL-51 cells). Details: GSPT1 degradation, compound treatment 6 hours, read-out: DC50.
Assay type: cell-based
Design: CAL-51 cells were purchased from DSMZ (cat. Number ACC302); endogenous in cells; host or cells: CAL-51 (DSMZ ACC302)
Summary of the method: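 CAL-51 cells on fibronectin-coated plates treated 6 h with compound (30 μM to 0.1 nM); fixed, stained with anti-GSPT1/Alexa-488, phalloidin and DAPI, imaged by high-content microscopy. Mean GSPT1 intensity per cell normalized to controls; DC50 by non-linear regression.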

GSPT1, sequence (P15170 whole entry): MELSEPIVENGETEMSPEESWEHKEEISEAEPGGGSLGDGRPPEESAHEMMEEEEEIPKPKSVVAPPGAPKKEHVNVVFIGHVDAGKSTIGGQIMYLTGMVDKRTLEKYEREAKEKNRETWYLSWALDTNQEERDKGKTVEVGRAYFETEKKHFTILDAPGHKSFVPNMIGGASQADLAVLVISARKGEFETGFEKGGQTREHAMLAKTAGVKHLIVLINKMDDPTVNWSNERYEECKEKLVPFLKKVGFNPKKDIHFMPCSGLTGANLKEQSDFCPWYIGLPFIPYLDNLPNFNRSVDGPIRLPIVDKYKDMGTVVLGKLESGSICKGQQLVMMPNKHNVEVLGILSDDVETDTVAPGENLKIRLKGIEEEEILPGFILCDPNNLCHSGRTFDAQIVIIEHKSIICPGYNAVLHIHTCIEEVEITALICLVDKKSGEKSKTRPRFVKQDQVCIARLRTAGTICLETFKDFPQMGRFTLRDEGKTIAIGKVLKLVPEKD
GSPT1, sequence (Q96SW2 whole entry): as the sequence (Q96SW2 whole entry) above
GSPT1, sequence (Q16531 2-1140 partner limits assumed): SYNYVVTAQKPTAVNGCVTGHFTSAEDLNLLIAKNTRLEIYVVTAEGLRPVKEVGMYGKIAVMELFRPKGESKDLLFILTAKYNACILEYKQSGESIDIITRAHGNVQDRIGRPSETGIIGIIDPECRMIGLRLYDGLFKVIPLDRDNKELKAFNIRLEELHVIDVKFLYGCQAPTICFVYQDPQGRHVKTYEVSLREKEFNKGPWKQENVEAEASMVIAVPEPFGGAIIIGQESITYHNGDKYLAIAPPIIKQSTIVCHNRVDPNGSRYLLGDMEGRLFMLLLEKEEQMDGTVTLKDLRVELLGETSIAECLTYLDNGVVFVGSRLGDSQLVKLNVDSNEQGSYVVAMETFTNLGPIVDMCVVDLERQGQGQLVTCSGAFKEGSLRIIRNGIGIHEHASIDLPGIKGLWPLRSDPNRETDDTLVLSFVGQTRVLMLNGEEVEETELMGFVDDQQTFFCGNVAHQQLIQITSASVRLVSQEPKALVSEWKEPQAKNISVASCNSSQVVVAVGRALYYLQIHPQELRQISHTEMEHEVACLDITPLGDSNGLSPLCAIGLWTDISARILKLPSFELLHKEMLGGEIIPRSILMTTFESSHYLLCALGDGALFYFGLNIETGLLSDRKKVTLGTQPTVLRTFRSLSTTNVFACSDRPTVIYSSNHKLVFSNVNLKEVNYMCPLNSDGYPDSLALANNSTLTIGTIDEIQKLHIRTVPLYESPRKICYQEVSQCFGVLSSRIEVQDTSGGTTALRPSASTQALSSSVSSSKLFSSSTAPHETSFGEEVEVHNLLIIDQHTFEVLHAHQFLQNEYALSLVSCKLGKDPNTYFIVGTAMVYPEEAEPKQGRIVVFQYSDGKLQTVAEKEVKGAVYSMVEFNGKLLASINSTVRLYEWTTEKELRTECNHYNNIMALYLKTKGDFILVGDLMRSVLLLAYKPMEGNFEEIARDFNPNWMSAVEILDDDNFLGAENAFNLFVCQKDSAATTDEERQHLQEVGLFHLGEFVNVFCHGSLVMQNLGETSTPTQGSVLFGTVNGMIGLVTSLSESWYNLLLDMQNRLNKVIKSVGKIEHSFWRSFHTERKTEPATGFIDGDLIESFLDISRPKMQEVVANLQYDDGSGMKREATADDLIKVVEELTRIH

Row | Structure (SMILES) | DC50 [nM]
17 | O=C1CCC(N2Cc3ccc(CNC(=O)Nc4ccc(C(F)(F)F)cc4)cc3C2=O)C(=O)N1 (stereo not drawn) [Compound 41] | 172

Same assay, conditions: compound treatment 6 hours, read-out: Code: activity for GSPT1 degradation (DC50)

Row | Structure (SMILES) | DC50 [nM]
18 | O=C1CCC(N2Cc3ccc(CNC(=O)Nc4ccc(C(F)(F)F)cc4)cc3C2=O)C(=O)N1 (stereo not drawn) [Compound 41] | 100 to 300
19 | Cc1cccc(NC(=O)NCc2ccc3c(c2)C(=O)N(C2CCC(=O)NC2=O)C3)c1 (stereo not drawn) [Compound 43] | > 300
20 | O=C1CCC(N2Cc3ccc(CNC(=O)Nc4cc(Cl)ccc4Cl)cc3C2=O)C(=O)N1 (stereo not drawn) [Compound 35] | > 300
21 | N#Cc1cccc(NC(=O)NCc2ccc3c(c2)C(=O)N(C2CCC(=O)NC2=O)C3)c1 (stereo not drawn) [Compound 73] | > 300
22 | O=C1CCC(N2Cc3ccc(CNC(=O)Nc4cccc(Cl)c4)cc3C2=O)C(=O)N1 (stereo not drawn) [Compound 3] | > 300
23 | O=C1CCC(N2Cc3ccc(CNC(=O)NCc4ccc(C(F)(F)F)cc4)cc3C2=O)C(=O)N1 (stereo not drawn) [Compound 65] | > 300
24 | O=C1CCC(N2Cc3ccc(CNC(=O)NCCc4ccc(Cl)cc4)cc3C2=O)C(=O)N1 (stereo not drawn) [Compound 64] | > 300
25 | Cc1cc(NC(=O)NCc2ccc3c(c2)C(=O)N(C2CCC(=O)NC2=O)C3)ccc1Cl (stereo not drawn) [Compound 61] | ≤ 100

These compounds were tested on Human mammary epithelial cells (HMEC) engineered to express c-myc tagged with EGFP (assay: 3D spheroid assay, myc-HMEC (CellTiterGlo3D viability)). Details: Homo sapiens, HMEC, 120 h, 3D spheroids, 5 days with compound, read-out: Code: EC50 value in the myc-HMEC assay.
Assay type: cell-based
Description: as §1, §2

Row | Structure (SMILES) | EC50 [nM]
26 | O=C1CCC(N2Cc3ccc(CNC(=O)Nc4ccc(C(F)(F)F)cc4)cc3C2=O)C(=O)N1 (stereo not drawn) [Compound 41] | 400 to 2000
27 | Cc1cccc(NC(=O)NCc2ccc3c(c2)C(=O)N(C2CCC(=O)NC2=O)C3)c1 (stereo not drawn) [Compound 43] | > 2000
28 | O=C1CCC(N2Cc3ccc(CNC(=O)Nc4cc(Cl)ccc4Cl)cc3C2=O)C(=O)N1 (stereo not drawn) [Compound 35] | > 2000
29 | N#Cc1cccc(NC(=O)NCc2ccc3c(c2)C(=O)N(C2CCC(=O)NC2=O)C3)c1 (stereo not drawn) [Compound 73] | > 2000
30 | O=C1CCC(N2Cc3ccc(CNC(=O)Nc4cccc(Cl)c4)cc3C2=O)C(=O)N1 (stereo not drawn) [Compound 3] | > 2000
31 | O=C1CCC(N2Cc3ccc(CNC(=O)NCc4ccc(C(F)(F)F)cc4)cc3C2=O)C(=O)N1 (stereo not drawn) [Compound 65] | > 2000
32 | O=C1CCC(N2Cc3ccc(CNC(=O)NCCc4ccc(Cl)cc4)cc3C2=O)C(=O)N1 (stereo not drawn) [Compound 64] | > 2000
33 | Cc1cc(NC(=O)NCc2ccc3c(c2)C(=O)N(C2CCC(=O)NC2=O)C3)ccc1Cl (stereo not drawn) [Compound 61] | ≤ 400

Same assay, conditions: Homo sapiens, HMEC, 120 h, myc-HMEC 3D spheroids (compounds with code D and E), 5 days, read-out: EC50

Row | Structure (SMILES) | EC50 [nM]
34 | O=C1CCC(N2Cc3ccc(CNC(=O)Nc4ccc(C(F)(F)F)cc4)cc3C2=O)C(=O)N1 (stereo not drawn) [Compound 41] | ≤ 2000

Same assay, conditions: myc-HMEC 3D spheroids (compounds with code D and E), 5 days, read-out: EC50

Row | Structure (SMILES) | EC50 [nM]
35 | O=C1CCC(N2Cc3ccc(CNC(=O)Nc4ccc(C(F)(F)F)cc4)cc3C2=O)C(=O)N1 (stereo not drawn) [Compound 41] | 1100
36 | Cc1cc(NC(=O)NCc2ccc3c(c2)C(=O)N(C2CCC(=O)NC2=O)C3)ccc1Cl (stereo not drawn) [Compound 61] | 92
